Source: paper PMC10537618, “Effect of Betanin, the Major Pigment of Red Beetroot (Beta vulgaris L.), on the Activity of Recombinant Human Cytochrome P450 Enzymes” (Pharmaceuticals, 2023)

Columns and labels:
[1] = target: T1, recombinant CYP3A4 (Homo sapiens, UniProt P08684); test: CYP3A4 enzyme kinetics, Lineweaver–Burk plot and secondary plot for Ki; format: in vitro ADME
T1 construct: purchased Thermo Fisher Scientific; host or cells: insect cells (microsomes)
Method: Next, we measured the kinetics of betanin metabolization by recombinant CYP3A4. Using the Michaelis constant (Km) and Vmax, we generated a Lineweaver–Burk plot. To obtain inhibition constant (Ki) values, various concentrations of BOMCC were incubated in the absence or presence of 3–100 μM betanin.
Data were obtained from 30 min incubation with BOMCC (1–20 μM) in the absence or presence of betanin (3–100 μM). All data are represented as mean ± SD from at least three independent experiments.
CYP activity was measured using Vivid CYP screening kits supplied with P450 BACULOSOMES Plus Reagent containing each CYP. The assays were conducted in the absence or presence of betanin and different concentrations of specific substrates. BOMCC was used as a specific substrate for CYP3A4. Lineweaver–Burk plots were generated for the determination of CYP activity in the absence or presence of betanin.

[2] = tested on: CYP2B6; test: P450-Glo luminescence-based CYP induction assay in HepG2 cells, CYP2B6 (Luciferin-2B6); format: in vitro ADME, human; design: induction of CYP2B6 activity in HepG2 cells by positive control inducer: dose or concentration left out as unconfirmed
Method: CYP enzyme activity was measured using P50-Glo assay kits. Omeprazole (OPZ) 1 mM and rifampicin (RFC) 1 and 10 mM were used as positive controls for the luminescence-based assay. The data are expressed as a percentage of the control (DMSO 0.5%). Results are mean ± SEM of triplicate independent experiments.
HepG2 cells were seeded at a concentration of 3 × 10^4 cells per well for CYP1A2 and 1 × 10^5 cells per well for CYP2B6 and CYP2C9 in opaque white 96-well plates. After 24 h of incubation, the cells were combined with 0.5% DMSO (vehicle control), 1 mM omeprazole, 10 mM rifampicin, or 0.1–100 μM betanin for 48 h. The supernatant was then switched to fresh medium containing the same concentration of the compound and incubated for an additional 24 h. To measure luminescence, the culture medium was replaced with fresh medium containing the luciferin substrate and incubated at 37 °C in a 5% CO₂ incubator (Table 2). Next, 50 µL of each well was transferred to a well of a fresh 96-well opaque white cell culture plate and mixed with 50 µL of CYP Luciferin Detection Reagent at room temperature to initiate the enzymatic reaction. After incubation for 20 min, luminescence was measured using a SpectraMax M3 Multi-Mode Microplate Reader (Bio-Rad).

[3] = target: T2, recombinant CYP2C9 (Homo sapiens, UniProt P11712); test: Vivid fluorescence-based CYP inhibition assay, recombinant CYP2C9 (BOMCC substrate); format: in vitro ADME
T2 construct: purchased; host or cells: insect cells (microsomes)
T2 sequence (P11712 whole entry): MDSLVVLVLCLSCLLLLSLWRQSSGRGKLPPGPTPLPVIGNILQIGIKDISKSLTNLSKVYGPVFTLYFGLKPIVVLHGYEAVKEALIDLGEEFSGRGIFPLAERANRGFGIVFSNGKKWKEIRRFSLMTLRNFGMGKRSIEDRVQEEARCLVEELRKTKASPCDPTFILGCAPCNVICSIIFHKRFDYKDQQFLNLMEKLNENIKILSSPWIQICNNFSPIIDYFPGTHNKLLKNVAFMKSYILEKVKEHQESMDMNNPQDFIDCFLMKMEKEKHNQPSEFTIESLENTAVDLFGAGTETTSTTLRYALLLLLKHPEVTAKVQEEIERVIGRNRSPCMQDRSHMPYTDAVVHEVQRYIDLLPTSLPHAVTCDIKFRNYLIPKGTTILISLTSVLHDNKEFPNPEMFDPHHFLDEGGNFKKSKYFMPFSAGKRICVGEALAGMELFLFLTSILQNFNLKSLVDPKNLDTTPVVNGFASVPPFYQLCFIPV
Method: (§1) We measured the activity of six representative CYPs using Vivid CYP screening kits. CYP activity was evaluated using recombinant CYPs and specific fluorescent substrates 7-ethoxymethoxy-3-cyanocoumarin (EOMCC) and 7-benzyloxymethyloxy-3-cyanocoumarin (BOMCC).
(§2) Raw fluorescence data were normalized against control activity values of 0% and 100%. Control 0% activity values were obtained from samples consisting of 0.5% DMSO and the enzyme solvent buffer without the enzyme. Maximum 100% activity values were expressed as a reaction with only enzymes and 0.5% DMSO, with no other drugs. Furafylline (FRL) 100 μM, bupropion (BPP) 50 μM, omeprazole (OPZ) 50 μM, fluvoxamine (FVX) 100 μM, quinidine (QND) 50 μM, and ketoconazole (KCZ) 1 μM were used as positive controls for the fluorescence-based assay. […] Raw data were normalized using the software GraphPad Prism 8.02. The data represent the mean ± SEM of triplicate independent experiments.
(§3) Fluorescence-based assays were performed according to the manufacturer’s instructions. […] The plates were immediately measured in the kinetic mode using a SpectraMax M3 Multi-Mode Microplate Reader (Bio-Rad, Hercules, CA, USA). […] The signals were measured using a SpectraMax M3 Multi-Mode Microplate Reader (Bio-Rad). Data fitting generated a sigmoidal dose–response curve with values calculated using Microsoft Excel 2016 (Microsoft Corporation, Redmond, WA, USA).

[4] = tested on: CYP1A2; test: P450-Glo luminescence-based CYP induction assay in HepG2 cells, CYP1A2 (Luciferin-1A2); settings: betanin 0.1–100 μM, versus control (DMSO 0.5%)
From the text: (§4) Results are mean ± SEM of triplicate independent experiments.

[5] = tested on: HepG2 cells; test: MTT cell viability assay; format: cell-based, human; settings: 0.1–100 μM, 48 h
Method: Human hepatocellular carcinoma (HepG2) cells were cultured in Minimum Essential Medium (MEM) supplemented with 10% fetal bovine serum and 1% penicillin–streptomycin. HepG2 cells were maintained at 37 °C in a humidified environment with a 5% CO₂ atmosphere. The culture medium was replaced every day before measuring CYP activity. HepG2 cells were grown in opaque 96-well plates at a density of 1 × 10^4 cells/well. After 24 h, the cells were added with the desired concentration of betanin for 48 h. Next, 20 µL of 5 mg/mL MTT solution in PBS was added to each well and incubated for 2 h. After removing the supernatant, 100 µL of DMSO was dispensed into each well and the plate was incubated for 10 min.

[6] = target: T1, recombinant CYP3A4; test: Vivid fluorescence-based CYP inhibition assay, recombinant CYP3A4 (BOMCC substrate); format: in vitro ADME
Method: as §1, §2
Fluorescence-based assays were performed according to the manufacturer’s instructions. Control, CYP positive control inhibitor, and betanin (0.1–100 μM) solutions were prepared by diluting the compounds with Vivid CYP Reaction Buffer (Table 1). Next, 40 µL of control, CYP positive control inhibitor, or betanin solution was dispensed into the wells of black 96-well plates. A Master Pre-Mix was prepared by diluting the P450 BAC-ULOSOMES Plus Reagent and Vivid Regeneration System in Vivid CYP Reaction Buffer. The P450 BACULOSOMES Plus Reagents are microsomes made from insect cells that express human cytochrome P450 reductase and CYP450 isozyme. […] The plates were immediately measured in the kinetic mode using a SpectraMax M3 Multi-Mode Microplate Reader (Bio-Rad, Hercules, CA, USA). […] The signals were measured using a SpectraMax M3 Multi-Mode Microplate Reader (Bio-Rad). Data fitting generated a sigmoidal dose–response curve with values calculated using Microsoft Excel 2016 (Microsoft Corporation, Redmond, WA, USA).

[7] = target: T3, recombinant CYP1A2 (Homo sapiens, UniProt P05177); test: Vivid fluorescence-based CYP inhibition assay, recombinant CYP1A2 (EOMCC substrate); format: in vitro ADME
T3 construct: purchased Thermo Fisher Scientific; host or cells: insect cells (microsomes)
T3 sequence (P05177 2-516 limits assumed): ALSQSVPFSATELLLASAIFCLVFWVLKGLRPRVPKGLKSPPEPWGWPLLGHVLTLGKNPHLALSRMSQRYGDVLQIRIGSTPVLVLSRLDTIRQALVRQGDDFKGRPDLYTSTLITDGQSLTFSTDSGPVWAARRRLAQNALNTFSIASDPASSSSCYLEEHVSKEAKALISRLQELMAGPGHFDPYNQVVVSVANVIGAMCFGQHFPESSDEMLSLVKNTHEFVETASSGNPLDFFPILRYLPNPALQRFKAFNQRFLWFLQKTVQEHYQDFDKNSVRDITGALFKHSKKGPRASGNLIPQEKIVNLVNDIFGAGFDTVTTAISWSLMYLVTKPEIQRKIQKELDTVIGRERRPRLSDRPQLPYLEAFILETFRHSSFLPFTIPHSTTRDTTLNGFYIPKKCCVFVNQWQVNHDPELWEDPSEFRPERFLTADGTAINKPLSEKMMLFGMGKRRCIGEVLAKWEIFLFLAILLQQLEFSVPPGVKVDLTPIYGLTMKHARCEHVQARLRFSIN
Method: as §1, §2, §3

[8] = target: T4, recombinant CYP2C19 (Homo sapiens, UniProt P33261); test: Vivid fluorescence-based CYP inhibition assay, recombinant CYP2C19 (EOMCC substrate); format: in vitro ADME
T4 construct: purchased Thermo Fisher Scientific; host or cells: insect cells (microsomes)
T4 sequence (P33261 whole entry): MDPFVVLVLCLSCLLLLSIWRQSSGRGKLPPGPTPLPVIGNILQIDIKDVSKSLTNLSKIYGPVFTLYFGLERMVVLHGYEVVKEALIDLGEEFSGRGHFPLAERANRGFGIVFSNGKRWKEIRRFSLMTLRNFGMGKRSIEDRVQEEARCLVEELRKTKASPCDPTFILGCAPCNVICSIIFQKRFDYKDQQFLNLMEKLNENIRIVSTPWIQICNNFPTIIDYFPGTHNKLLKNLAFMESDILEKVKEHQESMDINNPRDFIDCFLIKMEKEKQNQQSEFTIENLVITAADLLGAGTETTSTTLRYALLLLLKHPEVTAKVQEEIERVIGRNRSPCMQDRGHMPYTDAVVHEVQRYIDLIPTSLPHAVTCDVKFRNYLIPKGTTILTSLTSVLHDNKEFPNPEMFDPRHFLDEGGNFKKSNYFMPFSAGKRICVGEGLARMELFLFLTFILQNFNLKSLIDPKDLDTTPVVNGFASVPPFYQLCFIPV
Method: as §1, §2, §3

[9] = target: T5, recombinant CYP2B6 (Homo sapiens, UniProt P20813); test: Vivid fluorescence-based CYP inhibition assay, recombinant CYP2B6 (BOMCC substrate); format: in vitro ADME
T5 construct: purchased Thermo Fisher Scientific; host or cells: insect cells (microsomes)
T5 sequence (P20813 1-491): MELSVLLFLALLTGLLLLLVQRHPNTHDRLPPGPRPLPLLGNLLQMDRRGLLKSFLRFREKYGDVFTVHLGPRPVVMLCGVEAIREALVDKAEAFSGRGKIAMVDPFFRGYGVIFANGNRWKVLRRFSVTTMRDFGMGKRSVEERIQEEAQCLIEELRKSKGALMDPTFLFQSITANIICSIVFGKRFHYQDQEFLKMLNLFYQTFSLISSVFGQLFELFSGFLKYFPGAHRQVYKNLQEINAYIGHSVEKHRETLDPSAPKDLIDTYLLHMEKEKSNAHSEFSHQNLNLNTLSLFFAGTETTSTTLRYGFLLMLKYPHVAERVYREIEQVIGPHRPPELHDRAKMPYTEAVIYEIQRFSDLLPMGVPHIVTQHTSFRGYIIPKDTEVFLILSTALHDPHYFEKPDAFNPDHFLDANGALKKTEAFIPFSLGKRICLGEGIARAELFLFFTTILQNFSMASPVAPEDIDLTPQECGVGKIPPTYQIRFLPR
Method: as §1, §2, §3

[10] = target: T6, recombinant CYP2D6 (Homo sapiens, UniProt P10635); test: Vivid fluorescence-based CYP inhibition assay, recombinant CYP2D6 (EOMCC substrate); format: in vitro ADME
T6 construct: purchased Thermo Fisher Scientific; host or cells: insect cells (microsomes)
T6 sequence (P10635 whole entry): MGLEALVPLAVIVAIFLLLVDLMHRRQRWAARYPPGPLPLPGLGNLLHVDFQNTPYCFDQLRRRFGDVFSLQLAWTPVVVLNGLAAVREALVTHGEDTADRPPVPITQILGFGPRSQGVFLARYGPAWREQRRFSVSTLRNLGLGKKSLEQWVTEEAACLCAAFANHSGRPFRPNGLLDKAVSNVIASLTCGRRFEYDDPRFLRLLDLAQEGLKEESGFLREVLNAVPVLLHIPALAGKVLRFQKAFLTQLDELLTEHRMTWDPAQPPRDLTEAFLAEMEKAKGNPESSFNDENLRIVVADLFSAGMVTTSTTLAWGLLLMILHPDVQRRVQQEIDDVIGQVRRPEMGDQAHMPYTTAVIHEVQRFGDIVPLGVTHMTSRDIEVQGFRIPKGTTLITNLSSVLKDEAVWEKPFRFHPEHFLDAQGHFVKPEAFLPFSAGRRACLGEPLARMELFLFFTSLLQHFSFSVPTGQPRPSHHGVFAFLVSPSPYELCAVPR
Method: as §1, §2, §3

[11] = tested on: CYP2C9; test: P450-Glo luminescence-based CYP induction assay in HepG2 cells, CYP2C9 (Luciferin-H); format: in vitro ADME, human; settings: betanin 0.1–100 μM, versus control (DMSO 0.5%)
From the text: as §4

[12] = at any of the tested dosages (0.1–100 μM)
[13] = fluorescence-based, BOMCC substrate, betanin 0.1–100 μM
[14] = fluorescence-based, EOMCC substrate, betanin 0.1–100 μM

T1 sequence (P08684 2-503 limits assumed): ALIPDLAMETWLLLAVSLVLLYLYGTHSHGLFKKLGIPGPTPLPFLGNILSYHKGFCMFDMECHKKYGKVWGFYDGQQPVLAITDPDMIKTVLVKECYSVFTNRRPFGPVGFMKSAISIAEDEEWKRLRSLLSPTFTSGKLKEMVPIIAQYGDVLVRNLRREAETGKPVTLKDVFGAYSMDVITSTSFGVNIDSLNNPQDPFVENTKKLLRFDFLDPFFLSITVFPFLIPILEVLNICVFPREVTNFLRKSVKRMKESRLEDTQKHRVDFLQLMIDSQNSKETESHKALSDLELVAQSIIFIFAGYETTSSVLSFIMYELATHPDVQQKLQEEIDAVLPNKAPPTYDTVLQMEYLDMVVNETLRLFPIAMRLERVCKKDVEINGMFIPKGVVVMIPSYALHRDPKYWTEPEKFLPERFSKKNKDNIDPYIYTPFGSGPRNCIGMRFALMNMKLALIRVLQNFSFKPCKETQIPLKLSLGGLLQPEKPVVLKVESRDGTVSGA

Row | SMILES | Ki ([1]; 1–20 μM BOMCC, 3, 10, 30 and 100 μM betanin, 30 min incubation, read-out: Ki (inhibition constant) for CYP3A4) | mode of inhibition of CYP3A4 ([1]; Lineweaver–Burk and secondary plots) | induction effect on CYP2B6 activity in HepG2 cells ([2]; betanin 0.1–100 μM, versus control (DMSO 0.5%)) | inhibitory effect on recombinant CYP2C9 [3, 12] | IC50 [3, 13] | induction effect on CYP1A2 activity in HepG2 cells [4] | cytotoxicity toward HepG2 cells (MTT) [5] | inhibition of recombinant CYP3A4 ([6]; 30 μM) | inhibition of recombinant CYP3A4 ([6]; 100 μM) | IC50 ([6]; fluorescence-based, BOMCC substrate, betanin 0.1–100 μM, 95% CI 19.09–23.06 μM) | inhibitory effect on recombinant CYP1A2 [7, 12] | IC50 [7, 14] | inhibitory effect on recombinant CYP2C19 [8, 12] | IC50 [8, 14] | inhibitory effect on recombinant CYP2B6 [9, 12] | IC50 [9, 13] | inhibitory effect on recombinant CYP2D6 ([10]; 100 μM) | IC50 [10, 14] | induction effect on CYP2C9 activity in HepG2 cells [11] | induction of CYP2B6 activity in HepG2 cells by positive control inducer ([2]; compared to the control group)
1 | O=C(O)C1=C/C(=C/C=[N+]2/c3cc(O)c(OC4OC(CO)[C@@H](O)C(O)C4O)cc3CC2C(=O)[O-])CC(C(=O)O)N1 (stereo in doubt) [betanin, Betanin] | 19.5 µM | competitive inhibitor | did not show any induction effect | ≤ 30% | > 100 µM | did not show any induction effect | no cytotoxicity | 58% | 87% | 21 µM | ≤ 30% | > 100 µM | ≤ 30% | > 100 µM | ≤ 30% | > 100 µM | 33% | > 100 µM | did not show any induction effect | –
2 | CO[C@H]1/C=C/O[C@@]2(C)Oc3c(C)c(O)c4c(O)c(c(/C=N/N5CCN(C)CC5)c(O)c4c3C2=O)NC(=O)/C(C)=C\C=C\[C@H](C)[C@H](O)[C@@H](C)[C@@H](O)[C@@H](C)[C@H](OC(C)=O)[C@@H]1C [rifampin, reference compound] | – | – | – | – | – | – | – | – | – | – | – | – | – | – | – | – | – | – | – | significantly induced
